Columns and labels:
[1] = tested on: horny layer oxidized protein; test: Agent-induced inhibition of sodium hypochlorite-induced increase in horny layer oxidized protein (tape-stripped horny layer, fluorescein-5-thiosemicarbazide labeling); assay type: biochemical, human; details: abdomen tape horny layer, 0.2 mM sodium hypochlorite plus agent, 37° C. for 18 hours; concentration inhibiting increase to median between hypochlorite alone and water alone; read-out: 50% inhibition concentration
Protocol: Adhesive tape is attached to the skin, such as an unexposed part of the abdomen, of a healthy individual, and immediately stripped off for non-invasive sampling of the outer layer of the horny layer. The tape which was attached to the horny layer is incubated in an aqueous solution containing a mixture of the oxidizing agent and a fixed concentration of the candidate agent. […] The inhibiting effect of the agent on oxidized protein increase may also be evaluated based on the level of oxidized protein in the horny layer specimen obtained after simultaneously applying the oxidizing agent onto human skin.
(§1) Transparent adhesive tape was attached to the abdomen of a healthy individual and immediately stripped off, to non-invasively obtain the outer layer of the horny layer. The tape attached to the horny layer was incubated in an aqueous solution comprising a mixture of 0.2 mM sodium hypochlorite and a fixed concentration of the agent, at 37° C. for 18 hours. After incubation was complete, the mixture was thoroughly washed with phosphate-buffered saline (PBS) and then reacted with a 100 mM MES-Na buffer solution (pH 5.5) containing 20 μM fluorescein-5-thiosemicarbazide (Molecular Probes Co.) at room temperature for 1 hour. After completion of the reaction, thorough washing was carried out with phosphate-buffered saline (PBS) and a fluorescent microscope was used for observation.

[2] = tested on: horny layer oxidized protein; test: Increase in horny layer oxidized protein due to unsaturated fatty acid coated on forearm; assay type: in vivo, human; details: 40 μL/cm^2 of 30% linoleic acid-ethanol solution, 3 consecutive days
Protocol: (§2) After coating the forearm of a healthy individual with 40 μL/cm^2 of a 30% linoleic acid-ethanol solution for 3 consecutive days, transparent adhesive tape was attached to the irradiated site and immediately stripped off, to non-invasively obtain the outer layer of the horny layer. The tape attached to the horny layer was reacted with a 100 mM MES-Na buffer solution (pH 5.5) containing 20 μM fluorescein-5-thiosemicarbazide (Molecular Probes Co.) at room temperature for 1 hour. After completion of the reaction, thorough washing was carried out with phosphate-buffered saline (PBS), and then a fluorescent microscope was used for observation.

[3] = tested on: horny layer oxidized protein; test: Increase in horny layer oxidized protein due to sodium hypochlorite coated on forearm; assay type: in vivo, human; details: 2 μL/cm^2 of 20 mM aqueous solution, 5 consecutive days
Protocol: as §2, with “2” for “40”, “20 mM aqueous sodium hypochlorite” for “30% linoleic acid-ethanol”, “5” for “3”, “attached” for “attached to the irradiated site”

[4] = tested on: horny layer oxidized protein; test: Increase in horny layer oxidized protein due to sodium hypochlorite and unsaturated fatty acids (tape-stripped horny layer); assay type: biochemical, human; details: 0.2 mM aqueous sodium hypochlorite, 37° C., 18 hours, abdomen tape horny layer
Protocol: Transparent adhesive tape was attached to the abdomen of a healthy individual and immediately stripped off, to non-invasively obtain the outer layer of the horny layer. The tape attached to the horny layer was coated with 200 μg/cm^2 of unsaturated fatty acids (linoleic acid, oleic acid and palmitoleic acid), and then incubated in a 0.2 mM aqueous sodium hypochlorite solution at 37° C. for 18 hours. After incubation was complete, the mixture was thoroughly washed with phosphate-buffered saline (PBS) and then reacted with a 100 mM MES-Na buffer solution (pH 5.5) containing 20 μM fluorescein-5-thiosemicarbazide (Molecular Probes Co.) at room temperature for 1 hour. After completion of the reaction, thorough washing was carried out with phosphate-buffered saline (PBS) and a fluorescent microscope was used for observation.

[5] = tested on: horny layer oxidized protein; test: Increase in horny layer oxidized protein due to aldehyde (tape-stripped horny layer); assay type: biochemical, human; details: 1 mM aqueous acrolein, room temperature, 18 hours, abdomen tape horny layer
Protocol: as §1, with “in a 1 mM” for “in an”, “aqueous acrolein” for “aqueous”, “solution” for “solution comprising a mixture of 0.2 mM sodium hypochlorite and a fixed concentration of the agent,”, “at room temperature” for “at 37° C.”

SMILES	IC50 [1] [µM]	other results
O=C1O[C@H]([C@@H](O)CO)C(O)=C1O [Ascorbic acid]	210	–
O=S(O)S(=O)(=O)O [Sodium pyrosulfite]	< 125	–
NCCS(=O)(O)=S [2-Aminoethanethiosulfonic acid]	63	–
O=C1O[C@H]([C@@H](O)CO)C(O)=C1O[C@H]1O[C@H](CO)[C@@H](O)[C@H](O)[C@H]1O [2-O-α-D-Glucopyranosyl-L-ascorbic acid]	190	–
Cc1c(C)c2c(c(C)c1OP(=O)(O)OC1=C(O)C(C(O)CO)OC1=O)CCC(C)(CCCC(C)CCCC(C)CCCC(C)C)O2 [Potassium α-tocopherol-2-L-ascorbate phosphate diester]	< 125	–
N[C@@H](CCC(=O)N[C@@H](CS)C(=O)NCC(=O)O)C(=O)O [Glutathione]	8	–
CCCCC/C=C\C/C=C\CCCCCCCC(=O)O [linoleic acid]	–	change in oxidized protein after coating skin with linoleic acid [2]: increase in oxidized protein
O=C1O[C@H]([C@@H](O)CO)C(O)=C1OP(=O)(O)O [Magnesium ascorbate phosphate ester]	< 125	–
NCCS(=O)O [2-Aminoethanesulfinic acid]	86	–
Cc1c(C)c2c(c(C)c1O)CC[C@@](C)(CCC[C@H](C)CCC[C@H](C)CCCC(C)C)O2 [α-Tocopherol]	220	–
CCOC1=C(O)C(=O)O[C@@H]1[C@@H](O)CO [3-O-Ethylascorbic acid]	140	–
OCl [sodium hypochlorite]	–	change in oxidized protein after coating skin with sodium hypochlorite [3]: increase in oxidized protein; change in oxidized protein after incubation with sodium hypochlorite, compared to incubation with water [4]: increase in oxidized protein
C=CC=O [acrolein]	–	change in oxidized protein after incubation with acrolein [5]: increase in oxidized protein

From US20060216756A1, “Method for evaluating oxidized protein in horny cell layer” (Shiseido Company Ltd., priority 2003, published 2006)
